The assay concerns the target 5'-methylthioadenosine/S-adenosylhomocysteine nucleosidase (Escherichia coli O157:H7, UniProt P0AF14). In words: Inhibition of Escherichia coli MTAN.

Chain of 5'-methylthioadenosine/S-adenosylhomocysteine nucleosidase (P0AF14 whole entry): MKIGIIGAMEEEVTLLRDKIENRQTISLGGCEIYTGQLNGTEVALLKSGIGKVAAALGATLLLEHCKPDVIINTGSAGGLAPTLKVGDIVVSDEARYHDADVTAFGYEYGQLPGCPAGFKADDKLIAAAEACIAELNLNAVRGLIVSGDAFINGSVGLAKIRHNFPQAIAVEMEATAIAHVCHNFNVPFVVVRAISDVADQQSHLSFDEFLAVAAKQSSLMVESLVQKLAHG

As for `Nc1ncnc2c([C@@H]3N[C@H](CSCCC(N)C(=O)O)[C@@H](O)[C@H]3O)c[nH]c12` (stereo partly specified), the inhibition constant Ki (as a rule, a measure of affinity in units of concentration, obtained from inhibition or displacement) was 1.7 nM.

Values taken from ChEMBL document CHEMBL1147703, “Synthesis of a potent 5'-methylthioadenosine/S-adenosylhomocysteine (MTAN) inhibitor” (Bioorg Med Chem Lett, 2006).
